# Experiment: Asthma Quality of Life Questionnaire with Standardized Activities (AQLQ(S))
# Format: in vivo, human
# Conditions: for AQLQ global score responders at Week 12, number / AQLQ global score responders at Week 12, percentage: improvement ≥0.5 from baseline
# From the text: The AQLQ(S) is a self-administered patient reported outcome to measure the functional impairments that are most troublesome to adolescents and adults ≥12 years of age as a result of their asthma.
# Asthma Quality of Life Questionnaire with Standardized Activities (AQLQ(S)) self-administered (≥12 years)
# The AQLQ(S) was designed as a self-administered patient reported outcome to measure the functional impairments that are most troublesome to adolescents and adults ≥12 years of age as a result of their asthma. The instrument is comprised of 32 items, each rated on a 7-point Likert scales from 1 to 7. The AQLQ(S) has 4 domains. The domains and the number of items in each domain are as follows: • Symptoms (12 items) • Activity limitation (11 items) • Emotional function (5 items) • Environmental stimuli (4 items)
# A global score is calculated ranging from 1 to 7 and a score by domain. Higher scores indicate better quality of life. […] Patients were to complete the questionnaire in an electronic diary during on-site visits.
# Secondary endpoints included pre-bronchodilator FEV1 change from baseline at EOT, ACQ-5 score change from baseline, and AQLQ score change from baseline. Other secondary and exploratory endpoints are described in Table 2.
# [1] = 400 mg BID, observed/LOCF imputed, n=29, mITT
# [2] = 400 mg TID, observed/LOCF imputed, n=53, mITT
smiles,measurement,setting,value
"CC(C)(C=C(C#N)C(=O)N1CCC[C@@H](n2nc(-c3ccc(Oc4ccccc4)cc3F)c3c(N)ncnc32)C1)N1CCN(C2COC2)CC1 (mixture of isomers) [rilzabrutinib, (R)-2-[3-[4-amino-3-(2-fluoro-4-phenoxy-phenyl)pyrazolo[3,4-d]pyrimidin-1-yl]piperidine-1-carbonyl]-4-methyl-4-[4-(oxetan-3-yl)piperazin-1-yl]pent-2-enenitrile]","AQLQ global score responder analysis at Week 12, OR vs. placebo (95% CI)","400 mg BID, 95% CI 1.19, 20.17, mITT",4.89
same,"AQLQ global score responders (including multiply imputed) at Week 12, number","400 mg BID, N=32, mITT",16.6
same,"AQLQ global score responders (including multiply imputed) at Week 12, percentage","400 mg BID, N=32, mITT",(51.7)
same,"AQLQ global score responders at Week 12, number",[1],15
same,"AQLQ global score responders at Week 12, percentage",[1],(51.7) (14/1) %
same,"AQLQ global score change from baseline at Week 12, LS Mean Diff vs. placebo","400 mg BID, mITT, 1 asthma exacerbation within 2 years",0.75
same,"AQLQ global score change from baseline at Week 12, LS Mean Diff vs. placebo","400 mg BID, mITT, 2 asthma exacerbations within 2 years",0.61
same,"AQLQ global score change from baseline at Week 12, LS Mean Diff vs. placebo","400 mg BID, mITT, >2 asthma exacerbations within 2 years",1.18
same,"AQLQ global score change from baseline at Week 12, LS Mean Diff vs. placebo","400 mg BID, mITT, Eastern Europe",0.08
same,"AQLQ global score change from baseline at Week 12, LS Mean Diff vs. placebo","400 mg BID, mITT, Latin America",0.87
same,"AQLQ global score change from baseline at Week 12, LS Mean Diff vs. placebo","400 mg BID, mITT, age <45 years",0.20
same,"AQLQ global score change from baseline at Week 12, LS Mean Diff vs. placebo","400 mg BID, mITT, age at asthma onset <12 years",0.34
same,"AQLQ global score change from baseline at Week 12, LS Mean Diff vs. placebo","400 mg BID, mITT, age at asthma onset <18 years",0.43
same,"AQLQ global score change from baseline at Week 12, LS Mean Diff vs. placebo","400 mg BID, mITT, age at asthma onset ≥12-<18 years",2.49
same,"AQLQ global score change from baseline at Week 12, LS Mean Diff vs. placebo","400 mg BID, mITT, age at asthma onset ≥18-<40 years",0.57
same,"AQLQ global score change from baseline at Week 12, LS Mean Diff vs. placebo","400 mg BID, mITT, age at asthma onset ≥18 years",0.75
same,"AQLQ global score change from baseline at Week 12, LS Mean Diff vs. placebo","400 mg BID, mITT, age at asthma onset ≥40 years",0.93
same,"AQLQ global score change from baseline at Week 12, LS Mean Diff vs. placebo","400 mg BID, mITT, age ≥45 years",1.04
same,"AQLQ global score change from baseline at Week 12, LS Mean Diff vs. placebo","400 mg BID, mITT, all others than low EOS and low FeNO",0.61
same,"AQLQ global score change from baseline at Week 12, LS Mean Diff vs. placebo","400 mg BID, mITT, atopic medical conditions: no",1.08
same,"AQLQ global score change from baseline at Week 12, LS Mean Diff vs. placebo","400 mg BID, mITT, atopic medical conditions: yes",0.52
same,"AQLQ global score change from baseline at Week 12, LS Mean Diff vs. placebo","400 mg BID, mITT, baseline ACQ-5 score >2",0.95
same,"AQLQ global score change from baseline at Week 12, LS Mean Diff vs. placebo","400 mg BID, mITT, baseline ACQ-5 score ≤2",0.43
same,"AQLQ global score change from baseline at Week 12, LS Mean Diff vs. placebo","400 mg BID, mITT, baseline BMI <25 kg/m^2",1.00
same,"AQLQ global score change from baseline at Week 12, LS Mean Diff vs. placebo","400 mg BID, mITT, baseline BMI ≥25-<30 kg/m^2",0.67
same,"AQLQ global score change from baseline at Week 12, LS Mean Diff vs. placebo","400 mg BID, mITT, baseline BMI ≥30 kg/m^2",0.73
same,"AQLQ global score change from baseline at Week 12, LS Mean Diff vs. placebo","400 mg BID, mITT, baseline FEV1 reversibility <12%",0.73
same,"AQLQ global score change from baseline at Week 12, LS Mean Diff vs. placebo","400 mg BID, mITT, baseline FEV1 reversibility ≥12%",0.29
same,"AQLQ global score change from baseline at Week 12, LS Mean Diff vs. placebo","400 mg BID, mITT, baseline FeNO <25 ppb",0.98
same,"AQLQ global score change from baseline at Week 12, LS Mean Diff vs. placebo","400 mg BID, mITT, baseline FeNO <35 ppb",0.84
same,"AQLQ global score change from baseline at Week 12, LS Mean Diff vs. placebo","400 mg BID, mITT, baseline FeNO ≥25 ppb",0.51
same,"AQLQ global score change from baseline at Week 12, LS Mean Diff vs. placebo","400 mg BID, mITT, baseline FeNO ≥35 ppb",0.77
same,"AQLQ global score change from baseline at Week 12, LS Mean Diff vs. placebo","400 mg BID, mITT, baseline IgE <100 IU/mL",0.90
same,"AQLQ global score change from baseline at Week 12, LS Mean Diff vs. placebo","400 mg BID, mITT, baseline IgE <median 210.8 IU/mL",1.03
same,"AQLQ global score change from baseline at Week 12, LS Mean Diff vs. placebo","400 mg BID, mITT, baseline IgE ≥100 IU/mL",0.59
same,"AQLQ global score change from baseline at Week 12, LS Mean Diff vs. placebo","400 mg BID, mITT, baseline IgE ≥median 210.8 IU/mL",0.67
same,"AQLQ global score change from baseline at Week 12, LS Mean Diff vs. placebo","400 mg BID, mITT, baseline blood eosinophil level 1 <0.15 10^9/L",0.62
same,"AQLQ global score change from baseline at Week 12, LS Mean Diff vs. placebo","400 mg BID, mITT, baseline blood eosinophil level 1 ≥0.15 10^9/L",0.69
same,"AQLQ global score change from baseline at Week 12, LS Mean Diff vs. placebo","400 mg BID, mITT, baseline blood eosinophil level 2 <0.3 10^9/L",0.79
same,"AQLQ global score change from baseline at Week 12, LS Mean Diff vs. placebo","400 mg BID, mITT, baseline blood eosinophil level 2 ≥0.3 10^9/L",0.67
same,"AQLQ global score change from baseline at Week 12, LS Mean Diff vs. placebo","400 mg BID, mITT, baseline percent predicted FEV1 <68%",0.92
same,"AQLQ global score change from baseline at Week 12, LS Mean Diff vs. placebo","400 mg BID, mITT, baseline percent predicted FEV1 ≥68%",0.47
same,"AQLQ global score change from baseline at Week 12, LS Mean Diff vs. placebo","400 mg BID, mITT, baseline pre-bronchodilator FEV1 <2.022 L",0.89
same,"AQLQ global score change from baseline at Week 12, LS Mean Diff vs. placebo","400 mg BID, mITT, baseline pre-bronchodilator FEV1 ≥2.022 L",0.54
same,"AQLQ global score change from baseline at Week 12, LS Mean Diff vs. placebo","400 mg BID, mITT, baseline weight <60 kg",1.63
same,"AQLQ global score change from baseline at Week 12, LS Mean Diff vs. placebo","400 mg BID, mITT, baseline weight ≥60-<90 kg",0.70
same,"AQLQ global score change from baseline at Week 12, LS Mean Diff vs. placebo","400 mg BID, mITT, baseline weight ≥90 kg",−0.26
same,"AQLQ global score change from baseline at Week 12, LS Mean Diff vs. placebo","400 mg BID, mITT, female",0.73
same,"AQLQ global score change from baseline at Week 12, LS Mean Diff vs. placebo","400 mg BID, mITT, former smokers",1.89
same,"AQLQ global score change from baseline at Week 12, LS Mean Diff vs. placebo","400 mg BID, mITT, low EOS (<0.15) and low FeNO (<25)",2.45
same,"AQLQ global score change from baseline at Week 12, LS Mean Diff vs. placebo","400 mg BID, mITT, male",0.41
same,"AQLQ global score change from baseline at Week 12, LS Mean Diff vs. placebo","400 mg BID, mITT, never smokers",0.65
same,"AQLQ global score non-responders at Week 12, number",[1],14
same,"AQLQ global score non-responders at Week 12, percentage",[1],(48.3) (10/4)
same,participants with AQLQ improvement of at least 0.5 from baseline at Week 12,"400 mg BID, placebo 34.5%, p=0.0281",51.7%
same,"AQLQ global score responder analysis at Week 12, OR vs. placebo (95% CI)","400 mg TID, 95% CI 1.02, 4.89, mITT",2.23
same,"AQLQ global score responders (including multiply imputed) at Week 12, number","400 mg TID, N=64, mITT",32.9
same,"AQLQ global score responders (including multiply imputed) at Week 12, percentage","400 mg TID, N=64, mITT",(51.4)
same,"AQLQ global score responders at Week 12, number",[2],29
same,"AQLQ global score responders at Week 12, percentage",[2],(54.7) (28/1) %
same,"AQLQ global score change from baseline at Week 12, LS Mean Diff vs. placebo","400 mg TID, mITT, 1 asthma exacerbation within 2 years",0.29
same,"AQLQ global score change from baseline at Week 12, LS Mean Diff vs. placebo","400 mg TID, mITT, 2 asthma exacerbations within 2 years",0.27
same,"AQLQ global score change from baseline at Week 12, LS Mean Diff vs. placebo","400 mg TID, mITT, Eastern Europe",0.43
same,"AQLQ global score change from baseline at Week 12, LS Mean Diff vs. placebo","400 mg TID, mITT, Latin America",−0.22
same,"AQLQ global score change from baseline at Week 12, LS Mean Diff vs. placebo","400 mg TID, mITT, age <45 years",0.43
same,"AQLQ global score change from baseline at Week 12, LS Mean Diff vs. placebo","400 mg TID, mITT, age at asthma onset <12 years",0.46
same,"AQLQ global score change from baseline at Week 12, LS Mean Diff vs. placebo","400 mg TID, mITT, age at asthma onset <18 years",0.31
same,"AQLQ global score change from baseline at Week 12, LS Mean Diff vs. placebo","400 mg TID, mITT, age at asthma onset ≥12-<18 years",−0.37
same,"AQLQ global score change from baseline at Week 12, LS Mean Diff vs. placebo","400 mg TID, mITT, age at asthma onset ≥18-<40 years",0.25
same,"AQLQ global score change from baseline at Week 12, LS Mean Diff vs. placebo","400 mg TID, mITT, age at asthma onset ≥18 years",0.24
same,"AQLQ global score change from baseline at Week 12, LS Mean Diff vs. placebo","400 mg TID, mITT, age at asthma onset ≥40 years",0.29
same,"AQLQ global score change from baseline at Week 12, LS Mean Diff vs. placebo","400 mg TID, mITT, age ≥45 years",0.15

# From patent publication US20260345619A1 (Principia Biopharma Inc., priority 2023, published 2026)
